Data from US20260008995A1, “ISOLATED […], COMPOSITIONS COMPRISING THE SAME, AND USES THEREOF” (MOON (GUANGZHOU) BIOTECH CO., LTD., priority 2023, published 2026).

Experiments:
Strain MNH04863 = test: antibiotic susceptibility testing, disk diffusion test; type: cell-based, Christensenella sp.; details: for MNH04863 Inhibition Zone Diameter: disk diffusion, strain MNH04863; for susceptibility of strain MNH04863 to the antibiotic: result in words
Description: (§1) Antibiotic susceptibility testing was performed separately for each strain using the disk diffusion test.

Strain MNH05119 = test: as above; type: cell-based, Christensenella sp.; details: for MNH05119 Inhibition Zone Diameter: disk diffusion, strain MNH05119; for susceptibility of strain MNH05119 to the antibiotic: result in words
Description: as §1

Strain MNH06163 = test: as above; type: cell-based, Christensenella sp.; details: for MNH06163 Inhibition Zone Diameter: disk diffusion, strain MNH06163; for susceptibility of strain MNH06163 to the antibiotic: result in words
Description: as §1

[1] = tested on: type II diabetic mice (db/db); test: combination of MNH05119 and metformin in type II diabetic model mice (Example 7); type: in vivo, BKS-Leprem2Cd479/Gpt (db/db) mice; details: 28 days, MNH05119 2×10^10 CFU/mouse twice daily, metformin 250 mg/kg once daily, oral gavage
Description: (1) Experimental animals: The experimental mice were BKS-Leprem2Cd479/Gpt (db/db) mice, aged 5-6 weeks, 32 mice in total, purchased from GuangDong GemPharmatech Co., Ltd.
The activated strain was inoculated in MM01 liquid medium and cultured anaerobically to obtain a sufficient amount of cultures. These cultures were centrifuged, concentrated and resuspended in a solvent to obtain the subjects with purity and viable bacteria counts (1×10^11 CFU/mL) that satisfy the requirements of the animal experiments.
3) Negative control (HFD-control group): PBS-Cys was used as a negative control.
5) Experimental procedure: 5 to 6-week-old of 32 BKS-Leprem2Cd479/Gpt (db/db) male
mice were randomly grouped according to their body weights after quarantine, with 8 mice/group divided into 4 groups. […] All data were expressed as mean±SD, graphed and statistically analyzed using GraphPad Prism 8.0.2 software. […]
6) Oral Glucose Tolerance Test (OGTT): On the 27th day (Day27) of administration, OGTT was determined after 12 h of fasting (e.g., fasting from 20:30:00 μm to 08:30:00 μm the following day). The fasting body weights of the mice were measured and glucose was administered by gavage at a dose of 2 g/kg (glucose g/mouse fasting body weight kg). Fasting blood glucose as well as blood glucose values at 15 min, 30 min, 60 min, 90 min and 120 min post-glucose administration were measured.

Molecule | MNH04863 Inhibition Zone Diameter (Strain MNH04863) [mm] | susceptibility of strain MNH04863 to the antibiotic (Strain MNH04863) | MNH05119 Inhibition Zone Diameter (Strain MNH05119) [mm] | susceptibility of strain MNH05119 to the antibiotic (Strain MNH05119) | MNH06163 Inhibition Zone Diameter (Strain MNH06163) [mm] | susceptibility of strain MNH06163 to the antibiotic (Strain MNH06163) | reduction of fasting blood glucose value compared to negative control group [1] [%]
Penicillin [Penicillin (PEN)] | 43.06 | sensitive | 0 | resistance | 0 | resistance | 
O=C(O)c1cn(C2CC2)c2cc(N3CCNCC3)c(F)cc2c1=O [Ciprofloxacin (CFX), Ciprofloxacin] | 0 | resistance | 0 | resistance | 0 | resistance | 
CO/N=C(\C(=O)N[C@@H]1C(=O)N2C(C(=O)O)=C(CSc3nc(=O)c(=O)[nH]n3C)CS[C@H]12)c1csc(N)n1 [Ceftriaxone (CTR), Ceftriaxone] | 37.32 | sensitive | 0 | resistance | 0 | resistance | 
CC[C@H]1OC(=O)[C@H](C)[C@@H](O[C@H]2C[C@@](C)(OC)[C@@H](O)[C@H](C)O2)[C@H](C)[C@@H](O[C@@H]2O[C@H](C)C[C@H](N(C)C)[C@H]2O)[C@](C)(O)C[C@@H](C)C(=O)[C@H](C)[C@@H](O)[C@]1(C)O [Erythromycin (ERM), Erythromycin] | 16.82 | sensitive | 31.65 | sensitive | 8.72 | sensitive | 
O=C(N[C@H](CO)[C@H](O)c1ccc([N+](=O)[O-])cc1)C(Cl)Cl [Chloramphenicol (CLM), Chloramphenicol] | 38.88 | sensitive | 32.49 | sensitive | 21.59 | sensitive | 
Gentamycin [Gentamycin (GEN)] | 0 | resistance | 0 | resistance | 0 | resistance | 
CN(C)C(=N)N=C(N)N [metformin] |  |  |  |  |  |  | 50
CC1(C)S[C@@H]2[C@H](NC(=O)[C@H](N)c3ccccc3)C(=O)N2[C@H]1C(=O)O [Ampicillin (AMP), Ampicillin] | 0 | resistance | 0 | resistance | 0 | resistance | 
CN(C)[C@@H]1C(O)=C(C(N)=O)C(=O)[C@@]2(O)C(O)=C3C(=O)c4c(O)cccc4[C@@](C)(O)[C@H]3C[C@@H]12 [Tetracycline (TET), Tetracycline] | 46.11 |  | 24.12 |  | 18.14 |  | 
CCC[C@@H]1C[C@@H](C(=O)N[C@@H]([C@H]2O[C@H](SC)[C@H](O)[C@@H](O)[C@H]2O)[C@@H](C)O)N(C)C1 [Lincomycin (LIN), Lincomycin] | 29.86 | sensitive | 0 | resistance | 0 | resistance | 
Compound sulfamethoxazole [sulfamethoxazole (T/S)] | 0 | resistance | 0 | resistance | 0 | resistance | 
